Measurements taken from patent publication US20160047819A1, “METHOD FOR DIAGNOSING VAGINAL INFECTIONS” (priority 2013, published 2016).

Experiments:
[1] = system: bacterial vaginosis; test: Remission of bacterial vaginosis at V3 by Amsel's criteria and Gram stain Nugent score; type: in vivo, human
Experimental: Also provided is a diagnostic kit for use characterizing at least one protein useful for identifying the status of a vaginal infection. The kit includes instructions for carrying out a method of diagnosing vaginal infection using mass spectrometry. The diagnostic method of the invention has been tested on vaginal fluids collected from women enrolled in a clinical study of 80 Belgian pre-menopausal, non-pregnant women, aged between 18 and 50 years were analyzed. At the screening visit (V1) diagnosis of health or BV was made using both Amsel's criteria and Gram stain Nugent scoring. Patients with Nugent score >3 and positive for at least 3 of 4 Amsel's criteria were considered positive for BV. According to this clinical evaluation, women were divided into 2 groups: healthy subjects (H), (n=41) and patients diagnosed for BV (n=39). Patients who were diagnosed for BV at the study visit V1 were included in a multicenter, double-blind, randomised, placebo-controlled study reported in U.S. Ser. No. 13/559,013 (EudraCT: 2009-011826-32), that was performed to compare the efficacy of different doses of rifaximin vaginal tablets versus placebo for the treatment of BV. These patients underwent a randomisation visit and were distributed into four treatment groups: • group A received 100 mg rifaximin vaginal tablet once daily for 5 days (n=10), • group B received 25 mg rifaximin vaginal tablet once daily for 5 days (n=10), • group C received 100 mg rifaximin vaginal tablet once daily for the first 2 days and placebo vaginal tablet for the remaining 3 days (n=9), and • group D received placebo vaginal tablet once daily for 5 days (n=10).
After 7 to 10 days from the end of the therapy a follow-up visit (V3) was performed. Remission was evaluated at V3 according to Amsel's criteria (<3) and Gram stain Nugent score ([…]).
(§1) Patients who were diagnosed for BV at the study visit V1 were included in a multicentre, double-blind, randomised, placebo-controlled study (EudraCT: 2009-011826-32), that was performed to compare the efficacy of different doses of rifaximin vaginal tablets versus placebo for the treatment of BV. The patients underwent a randomization visit and were distributed into 4 treatment groups: group A received 100 mg rifaximin vaginal tablet once daily for 5 days (n=10), group B received 25 mg rifaximin vaginal tablet once daily for 5 days (n=10), group C received 100 mg rifaximin vaginal tablet once daily for the first 2 days and placebo vaginal tablet for the remaining 3 days (n=9), group D received placebo vaginal tablet once daily for 5 days (n=10). Study medication was administered intra-vaginally at bedtime. After 7 to 10 days from the end of the therapy a follow-up visit (V3) was performed. Remission was evaluated at V3 according to Amsel's criteria (<3) and Gram stain Nugent score (≦3) (Table 1).
as §1, with “randomisation” for “randomization”

[2] = system: Atopobium; test: Real-time PCR of vaginal bacterial communities; type: in vivo
Experimental: (§2) The qPCR real-time quantitative PCR was used for the identification and quantification of bacterial groups involved in the imbalance that effects the vaginal microbiota, in particular to determine the concentrations of the principal bacterial groups which are known to be affected in the presence of BV such as Lactobacillus, Atopobium, Gardnerella vaginalis, Prevotella, Veillonella, Mobiluncus and Mycoplasma hominis.
(§3) qPCR was performed on DNA samples extracted from CVF of healthy women (H), women affected by BV at V1 (BV), women who were in remission after rifaximin treatment at V3 (R), and women who were not in remission after antibiotic or placebo treatment at V3 (N).
(§4) A total of 80 Belgian pre-menopausal, non-pregnant women, aged between 18 and 50 years were included in the present study. At the screening visit (V1) diagnosis of health or BV was made using both Amsel's criteria and Gram stain Nugent scoring. Patients with Nugent score >3 and positive for at least 3 of 4 Amsel's criteria were considered positive for BV. According to this clinical evaluation, women were split into 2 groups: healthy subjects (H), who had no signs of vaginal tract infection (n=41) and patients affected by BV (n=39).
as §1
(§5) Standardized vaginal rinsings with 2 mL of saline were collected for analysis at V1 and V3 by flushing and re-aspirating the fluid through a 22 Gauge needle in the left, central and right upper vaginal vaults. The vaginal rinsings were subsequently stored at −80° C. until use.
(§6) One mL of each vaginal rinsing was centrifuged at 9500 g for 15 min to separate the pellet, which was processed for bacterial DNA isolation, from the supernatant, used for protein extraction.
(§7) DNA amount was quantified using NanoDrop ND-1000 (NanoDrop® Technologies, Wilmington, Del.).
(§8) Real-time PCR was performed on DNA samples extracted from cervicovaginal fluid (CVF) collected from 41 healthy women (H) and 39 BV-affected women before (BV) and after rifaximin/placebo treatment R (11 women in remission) and N (28 women not in remission).
(§9) Specific primer sets targeted to 16S rRNA gene or 16S-23S rRNA spacer region were used to quantify the following genus or species: Lactobacillus, Gardnerella vaginalis, Atopobium, Prevotella, Veillonella, Mycoplasma hominis and Mobiluncus.

[3] = system: Gardnerella vaginalis; test: Real-time PCR of vaginal bacterial communities; type: in vivo
Experimental: as §2, §3, §4, §1, §5, §6, §7, §8, §9

[4] = system: Lactobacillus; test: Real-time PCR of vaginal bacterial communities; type: in vivo
Experimental: as §2, §3, §4, §1, §5, §6, §7, §8, §9

[5] = system: Mobiluncus; test: Real-time PCR of vaginal bacterial communities; type: in vivo
Experimental: as §2, §3, §4, §1, §5, §6, §7, §8, §9

[6] = system: Mycoplasma hominis; test: Real-time PCR of vaginal bacterial communities; type: in vivo
Experimental: as §2, §3, §4, §1, §5, §6, §7, §8, §9

[7] = system: Prevotella; test: Real-time PCR of vaginal bacterial communities; type: in vivo
Experimental: as §2, §3, §4, §1, §5, §6, §7, §8, §9

[8] = system: Veillonella; test: Real-time PCR of vaginal bacterial communities; type: in vivo
Experimental: as §2, §3, §4, §1, §5, §6, §7, §8, §9

[9] = group A: 100 mg vaginal tablet once daily for 5 days (n=10)
[10] = group B: 25 mg vaginal tablet once daily for 5 days (n=10)
[11] = group C: 100 mg vaginal tablet once daily for 2 days, then placebo 3 days (n=9)
[12] = R group: women in remission after rifaximin treatment at V3
[13] = R group: women in remission after rifaximin treatment at V3, qPCR

SMILES: CO[C@H]1/C=C/O[C@@]2(C)Oc3c(C)c(O)c4c(O)c(c5c(nc6cc(C)ccn65)c4c3C2=O)NC(=O)/C(C)=C\C=C\[C@H](C)[C@H](O)[C@@H](C)[C@@H](O)[C@@H](C)[C@H](OC(C)=O)[C@@H]1C [rifaximin]
- women in remission after treatment [1, 9]: 2 women
- women not in remission after treatment [1, 9]: 8 women
- women in remission after treatment [1, 10]: 5 women
- women not in remission after treatment [1, 10]: 5 women
- women in remission after treatment [1, 11]: 4 women
- women not in remission after treatment [1, 11]: 5 women
- women in remission (R), all treatment groups ([1]; of 39 BV-affected women after rifaximin/placebo treatment): 11 women
- Atopobium concentration in R group compared to BV group ([2]; R group at V3 vs BV group, still higher than H group): significantly lower
- Target DNA/genomic vaginal DNA (median), Atopobium [2, 12]: 4.86 ng/µg
- % of women hosting Atopobium [2, 13]: 100%
- G. vaginalis concentration in R group ([3]; R group at V3): very low concentrations
- Target DNA/genomic vaginal DNA (median), G. vaginalis [3, 12]: 0.0 ng/µg
- % of women hosting Gardnerella vaginalis [3, 13]: 45.5%
- median value of Lactobacilli in R group relative to BV group ([4]; R group after antibiotic treatment vs BV group, higher): about 10 times
- Target DNA/genomic vaginal DNA (median), Lactobacillus [4, 12]: 46.3 ng/µg
- % of women hosting Lactobacillus [4, 13]: 100%
- Mobiluncus quantification in R group ([5]; R group at V3): not quantified in any of the women
- Target DNA/genomic vaginal DNA (median), Mobiluncus [5, 12]: 0.0 ng/µg
- % of women hosting Mobiluncus [5, 13]: 0.0%
- M. hominis in R group compared to BV group ([6]; R group at V3 vs BV group): significant reduction
- Target DNA/genomic vaginal DNA (median), Mycoplasma hominis [6, 12]: 0.00156 ng/µg
- % of women hosting Mycoplasma hominis [6, 13]: 63.6%
- Prevotella concentration in R group ([7]; R group at V3): very low concentrations
- Target DNA/genomic vaginal DNA (median), Prevotella [7, 12]: 0.0451 ng/µg
- % of women hosting Prevotella [7, 13]: 81.8%
- Veillonella quantification in R group ([8]; R group at V3): not quantified in any of the women
- Target DNA/genomic vaginal DNA (median), Veillonella [8, 12]: 0.0 ng/µg
- % of women hosting Veillonella [8, 13]: 0.0%
